Laboratory results as given in US7553821B2, “Methods for selectively modulating survivin apoptosis pathways” (Yale University, priority 2000, dated 2009).

What was measured:
HeLa cells = assay: Mitotic spindle immunofluorescence (tubulin) in transfected HeLa cells; assay type: cell-based; conditions: tubulin labeling
Experimental: HeLa cells transfected with wild type survivin (WT) or survivin(T34A) (T34A), were fixed in microtubule-stabilizing buffer (Li et al., 1998), and labeled with mAb 20C6 to […] -tubulin followed by FITC-conjugated goat anti-mouse IgG. Images were analyzed by confocal microscopy as described in FIG. 2C.
(§1) Transfection experiments. For transient transfection, HeLa cells in C-6 tissue culture plates (Costar, Cambridge, Mass.) at ˜60-70% confluency, were incubated in 1 ml of serum-free OptiMEM medium (Life Technologies, Gaithersburg, Md.) for 20 min, and transfected with 2.5 μg of the various plasmid cDNAs plus 9 μl Lipofectamine (Life Technologies). After a 5 h incubation at 37° C., the mixture was aspirated and substituted with complete growth medium for 48-72 h. To generate stable YUSAC-2 transfectants, a survivin(T34A) cDNA was inserted into the HindIII-SpeI sites of the pTet-splice vector (Dr. D. Schatz, Yale University School of Medicine), downstream of the regulatory sequences of the Tet-resistance operon (TetO). YUSAC-2 cells were transfected with 0.8 μg pTet-T34A, 0.8 μg of the transactivation/selection plasmid ptTA-Neo and 5 μl Lipofectamine in 1 ml of OptiMem. […] Gated GFP-expressing cells were analyzed for DNA content by flow cytometry on a FACSort (Becton Dickinson, San Jose, Calif.) using a Cell Quest software. […]

p34^cdc2 = biological target: T1, p34^cdc2 (Homo sapiens, UniProt P06493); assay: Co-immunoprecipitation of survivin and p34cdc2 from HeLa cells; assay type: binding; conditions: asynchronously growing transfected HeLa cells
T1 construct: immunoprecipitated with an antibody to HA, and immunoblotted with antibodies to p34^cdc2 or HA; endogenous in cells; host or cells: HeLa
T1 sequence (P06493 whole entry): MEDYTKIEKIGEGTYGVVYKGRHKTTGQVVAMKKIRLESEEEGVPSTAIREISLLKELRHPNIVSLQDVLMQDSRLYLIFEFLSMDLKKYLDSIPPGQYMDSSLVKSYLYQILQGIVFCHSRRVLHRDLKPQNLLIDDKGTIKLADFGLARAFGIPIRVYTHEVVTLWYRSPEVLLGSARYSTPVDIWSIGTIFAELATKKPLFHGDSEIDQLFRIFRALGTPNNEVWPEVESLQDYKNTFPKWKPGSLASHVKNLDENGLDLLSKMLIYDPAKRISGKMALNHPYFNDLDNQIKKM
Experimental: The experimental procedures are the same as in A, except that asynchronously growing HeLa cells were transfected with HA-survivin or HA-survivin(T34A), immunoprecipitated with an antibody to HA, and immunoblotted with antibodies to p34^cdc2 or HA. W, whole HeLa cell extract.
as §1

[1] = test system: YUSAC-2 human melanoma cells; assay: Melanoma tumor formation in CB.17 immunodeficient mice; assay type: in vivo, CB.17 SCID/beige mice
Experimental: To determine whether interference with survivin function by regulated expression of survivin antagonists could block melanoma tumor formation in CB.17 immunodeficient mice, mice were monitored for 8 weeks following subcutaneous injection, and tumor measurements taken at 4- and 8-week time points (Table I). It was determined that YUSAC-2 cells consistently form localized tumors in 6 to 8-week-old female CB.17 SCID/beige mice (Taconic Farms, Germantown, N.Y.) approximately 3-4 weeks following subcutaneous injection of 1-3×10^6 cells. Animals were monitored for up to 4 months, and neither mortality nor gross metastasis is associated with increasing tumor size (up to 5000 mm^3) or ulceration. One day prior to injection, mice were shaved on the right flank, and the regular drinking water was replaced with 5% sucrose alone or containing […] tet as described (Shockett et al., 1995). Cells were harvested in log-phase growth, washed twice in PBS, resuspended in PBS (12×10^6 cells per ml) and injected (0.25 ml, 3×10^6 cells) subcutaneously. The drinking water was changed every 2-3 days. Tumor size was determined by the product of two perpendicular diameters and the height above the skin surface.
Table 1. Summary of tumor formation for all animals. CB.17 mice were injected with cells and tet was added or withheld from the drinking water. […]

survivin(T34A): dominant-negative, non-phosphorylatable survivin mutant with Thr34→Ala substitution, expressed from transfected cDNA (also HA- or GFP-tagged)
mitotic spindle morphology (HeLa cells): profound dysregulation of mitotic transitions | p34^cdc2 in HA immunoprecipitates by Western blotting (p34^cdc2): contained a prominent p34^cdc2 band | Tumor size (mean ± standard deviation, only mice with tumors) ([1]; 8 Weeks, F5.C4 cells s.c., tet absent): 278 ± 116 mm^3 | size and onset of tumors in tet-deprived animals compared to animals given tet ([1]; F5.C4 cells, two tet-deprived animals with tumors): considerably smaller in size and appeared with a markedly delayed onset
